# Experimental data from paper PMC5072831, “Novel Nuclear Factor-KappaB Targeting Peptide Suppresses β-Amyloid Induced Inflammatory and Apoptotic Responses in Neuronal Cells” (PLoS ONE, 2016).
# How the values were obtained:
# [1] = system: NF-κΒ p65; details: ref [61]; cited from earlier work
# Description: There is increasing interest in developing disease modifying agents for neurodegenerative diseases based on molecular pathogenesis. […] As opposed to high throughput screening, computational design of interface peptide mimics followed by functional evaluation represe ...
# [2] = system: caspase-3; details: ref [70], [71]; cited from earlier work
# Description: Multiple caspases including caspase-3 and caspase-9 are transcriptionally elevated in AD [66, 67].
# [3] = ref [67]; cited from earlier work
# [4] = system: Caspase-9 mRNA; assay: Caspase-9 mRNA in HFB by quantitative real-time PCR; assay type: cell-based, human; details: Aβ1–42 exposure alone
# Procedure: (§1) Primary HFB exposed to Aβ1–42 and treated with GA or CP as above was harvested at the end of 24h. Total cellular RNA was isolated using Qiagen kit (Invitrogen, Carlsbad, CA) following manufacturer's protocol. Total RNA (2–4 μg) was reverse transcribed using iScript cDNA synthesis kit (Biorad, CA). The concentration of the cDNA was measured at 260 and 280 nm by the Gensys5 model UV-visible spectrophotometer (Thermoelectronic Corp.,CA). Real-time PCR was performed by using the SYBR green/ROX qPCR master mix (SABiosciences, Frederick, MD) according to manufacturer's recommendations on the CFX96 Touch™ Real-Time PCR Detection System (Biorad laboratories, Hercules, California, USA). Each reaction contains 2×12.5 μl of SYBR green Master Mix, 1 μl of 10 μM of primers and 50 ng of the cDNA, to a total volume of 25 μl. The thermal cycling conditions included an initial denaturation step at 50°C for 2 min, 95°C for 3 min, 39 cycles at 95°C for 30 s, annealing temperature at 54°C for 30 s and extension at 72°C for 30s. The primers are F-GAPDH-5′-[…]-3′; R-GAPDH:5′-G […]-3′(102bp); F-IL-1β:5′-[…]-3′; R-IL-1β:5′[…]-3′ (89 bp); F-IL-6:5′-[…] […] The difference in each gene-specific threshold between the samples from vehicle treated and GA or CP treated cells was determined to obtain the relative change in the specific mRNA. The magnitude of change in the mRNA was expressed as 2^ΔΔCt. […]
# [5] = system: Caspase-3 mRNA; assay: Caspase-3 mRNA in HFB by quantitative real-time PCR; assay type: cell-based, human; details: Aβ1–42 exposure alone
# Procedure: as §1
# [6] = system: IL-6 mRNA; assay: IL-6 mRNA in HFB by quantitative real-time PCR; assay type: cell-based, human; details: Aβ1–42 exposure alone
# Procedure: as §1
# [7] = system: nuclear p50; assay: Nuclear p50 in HFB; assay type: cell-based, human; details: HFB exposed to Aβ1–42
# Procedure: (§2) Primary HFB exposed to Aβ1–42 and treated with GA or CP as above was harvested at the end of 4h. Nuclear and cytoplasmic fractions were extracted using the CelLytic™ NuCLEAR™ Extraction Kit (Sigma) following manufacturer’s protocol. Five microgram of nuclear extracts was incubated in a 96-well plate coated with oligonucleotides containing the NF-κΒ consensus nucleotide sequence (5’-[…]-3’). The activated NF-κΒ bound to DNA was detected by anti-p65 antibody followed by a peroxidase coupled secondary antibody and substrate using the TransAM kit protocol (Active Motif). Nuclear extracts of Raji cells was used as the positive control.
# We measured nuclear p65 using activated NF-κΒ specific ELISA and calculated the p65 DNA binding activity as the ratio of absorbance form Aβ1–42 stimulated cells to that of unstimulated cells. […] There was a trend towards decreased nuclear p65 in Aβ1–42 exposed cells treated with GA-1 (6.13+/-1.3) and GA-2 (6.7+/-1.5) as compared to untreated cells (14.75+/-3.5). Nuclear p65 of Aβ1–42 exposed cells treated with CP-1, CP-2 and CP-3 measured 6.8+/-3.9, 10.2+/-2.9 and 10.1+/-3.7 respectively (Fig 6H). […] Although we observed slightly elevated nuclear p50 in Aβ1–42 (6.15+/-1.2) than in unexposed cells (0.5+/-2.7), no difference was observed between GA peptide of CP treated cells and untreated cells (data not shown).
# [8] = system: human fetal brain cells (HFB); assay: CTG viability in human primary mixed brain cultures (HFB); assay type: cell-based
# Procedure: HFB were prepared and cultured as described (S1 and S2 Docs). Briefly, cells were cultured in Neurobasal medium (Invitrogen) without phenol red supplemented with 1xB27, […], 1xantibiotic cocktail, 5ng/mL recombinant fibroblast growth factor 2 (bFGF) (Invitrogen), and 2μL/mL Normocin (InVivoGen, San Diego, CA, USA). Cells were counted and seeded onto poly-D-lysine (Sigma-Aldrich) coated 24-well plates (Corning, Lowell, MA, USA) at 1.5x10^5 cells per well and maintained at 37°C in a 5% CO2 incubator. Half media changes were performed every 4th day of culture and morphology was monitored via phase contrast microscopy. Culture medium was removed from cells on day 17 (DIV17) and replaced with Neurobasal medium with B27. […] Cells and conditioned media were harvested and stored for further analysis. Relative ATP concentration was measured using the CTG kit (Promega). Data is presented as ΔRLU = RLU of Aβ1–42 exposed cells–RLU unexposed cells. Conditioned media collected were assessed for specific cytokines using the OptEIA kits (BD Biosciences).
# [9] = system: IL-1β mRNA; assay: IL-1β mRNA in HFB by quantitative real-time PCR; assay type: cell-based, human; details: Aβ1–42 exposure alone
# Procedure: as §1
# [10] = system: activated p65 NF-κΒ subunit; assay: NF-κB assay, nuclear p65 DNA binding (TransAM) in HFB; assay type: cell-based, human; details: HFB exposed to Aβ1–42, 4 h, 5μg nuclear extract, TransAM ELISA; average+/-SD from two experiments
# Procedure: as §2
# Fig 6 Effect of GILZ analog (GA) treatment on human fetal brain cells (HFB): (A,B): Select GA decrease metabolic activity in Aβ1–42 exposed HFB. […] Cytoplasmic extracts of cells collected at 24h was assessed for viability by CTG assay. […] HFB cells were cultured as above and culture medium collected at 24hrs was assessed for pro-inflammatory (IL-1β, IL-6 and IL-17) (C, D, E and F) and anti-inflammatory (TGF-β) (G) cytokines. […] The p65 DNA binding activity was calculated as the ratio of absorbance from Aβ1–42 stimulated cells to that of unstimulated cells. […]
# We measured nuclear p65 using activated NF-κΒ specific ELISA and calculated the p65 DNA binding activity as the ratio of absorbance form Aβ1–42 stimulated cells to that of unstimulated cells. […]
molecule,measurement,setting,value
C=C1C(=O)[C@]23C[C@H]1C[C@H](OC(C)=O)[C@H]2[C@]1(C)[C@@H](OC(C)=O)C[C@H](O)C(C)(C)[C@H]1C(=O)[C@@H]3OC(C)=O [adenanthin],effect in AD models,[1],"interact with NF-κΒ p65, suppress inflammation and cytotoxicity in AD models"
COc1ccc2[nH]cc(CCNC(C)=O)c2c1 [melatonin],effect on Aβ-induced caspase-3 activity,[2],suppress Aβ-induced caspase-3 activity
Oc1ccc(/C=C/c2cc(O)cc(O)c2)cc1 [resveratrol],effect in AD models,[1],"interact with NF-κΒ p65, suppress inflammation and cytotoxicity in AD models"
oncocin,influx into CNS and distribution in brain parenchyma,[3],significant influx into CNS and distribution within the brain parenchyma
"Aβ1–42: Purified Aβ1–42 peptide (American Peptide company), used as stimulus",caspase 9 mRNA (in words),[4],upregulation of mRNA for caspase 3 and caspase 9
same,caspase 3 mRNA (in words),[5],upregulation of mRNA for caspase 3
same,IL-6 mRNA (in words),[6],upregulation of mRNA for IL-1β and IL-6
same,nuclear p50,[7],6.15+/-1.2
same,average RLU of cultures exposed to Aβ1–42,[8]; lower end over different experiments,6067.25+/-903.05
same,average RLU of cultures exposed to Aβ1–42,[8]; upper end over different experiments,11574.25+/- 4139.3
same,IL-1β mRNA (in words),[9],upregulation of mRNA for IL-1β
same,"nuclear p65 DNA binding activity (ratio of absorbance, Aβ1–42 stimulated / unstimulated)",[10],14.75+/-3.5
